Source: US9695155B2, “Herbicidal substituted pyrimidinyloxy benzene compounds” (E. I. DU PONT DE NEMOURS AND COMPANY, priority 2013, dated 2017)

Key:
[1] = tested on: morningglory; assay: Test C postemergence; assay type: in vivo, Ipomoea coccinea; settings: for Plant response rating (0 to 100), Morningglory: 16 g ai/ha, 0 is no effect, 100 is complete control; for Morningglory plant response rating: 31 g ai/ha, 13 to 15 days; for Morningglory plant response rating / Plant response rating, Morningglory: scale 0 to 100 (0 no effect, 100 complete control)
Summary of the method: (§1)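 Rated visually on 0–100 (100 = complete control) after 13–15 days under glass. Treatments went onto freshly seeded loam/sand soil or onto emerged plants at the 1- to 4-leaf stage, using a surfactant-containing solvent formulation.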

[2] = tested on: giant foxtail; assay: Test A postemergence; assay type: in vivo, Setaria faberii
Summary of the method: (§2)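 Scoring: eye-based comparison with untreated controls, 0 for no effect through 100 for complete control, at about day 10. Treatments: directed soil spray preemergence; foliar spray postemergence on 2–10 cm plants at the one- to two-leaf stage. Medium: loam soil with sand.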

[3] = tested on: corn; assay: Test C preemergence; assay type: in vivo, Zea mays; settings: for Corn plant response rating: preemergence; for Plant response rating, Corn: Preemergence, 31 g ai/ha, scale 0 to 100, 0 no effect, 100 complete control
Summary of the method: as §1

[4] = tested on: soybean; assay: Test C postemergence; assay type: in vivo, Glycine max; settings: for Plant response rating (0 to 100), Soybean: 16 g ai/ha, 0 is no effect, 100 is complete control; for Soybean plant response rating: 31 g ai/ha, 13 to 15 days; for Soybean plant response rating / Plant response rating, Soybean: scale 0 to 100 (0 no effect, 100 complete control)
Summary of the method: as §1

[5] = tested on: ragweed; assay: Test C preemergence; assay type: in vivo, Ambrosia elatior; settings: preemergence
Summary of the method: as §1

[6] = tested on: corn; assay: Test A postemergence; assay type: in vivo, Zea mays
Summary of the method: as §2

[7] = tested on: waterhemp; assay: Test C postemergence; assay type: in vivo, Amaranthus rudis; settings: for Plant response rating (0 to 100), Waterhemp: 16 g ai/ha, 0 is no effect, 100 is complete control; for Waterhemp plant response rating: 31 g ai/ha, 13 to 15 days; for Waterhemp plant response rating / Plant response rating, Waterhemp: scale 0 to 100 (0 no effect, 100 complete control)
Summary of the method: as §1

[8] = tested on: velvetleaf; assay: Test C preemergence; assay type: in vivo, Abutilon theophrasti; settings: preemergence
Summary of the method: as §1

[9] = tested on: pigweed; assay: Test A postemergence; assay type: in vivo, Amaranthus retroflexus
Summary of the method: as §2

[10] = tested on: morningglory; assay: Test C preemergence; assay type: in vivo, Ipomoea coccinea; settings: preemergence
Summary of the method: as §1

[11] = tested on: ragweed; assay: Test C postemergence; assay type: in vivo, Ambrosia elatior; settings: for Plant response rating (0 to 100), Ragweed: 16 g ai/ha, 0 is no effect, 100 is complete control; for Ragweed plant response rating: 31 g ai/ha, 13 to 15 days; for Ragweed plant response rating / Plant response rating, Ragweed: scale 0 to 100 (0 no effect, 100 complete control)
Summary of the method: as §1

[12] = tested on: galium; assay: Test C preemergence; assay type: in vivo, Galium aparine; settings: for Galium plant response rating: preemergence; for Plant response rating, Galium: Preemergence, 31 g ai/ha, scale 0 to 100, 0 no effect, 100 complete control
Summary of the method: as §1

[13] = tested on: lambsquarters; assay: Test C preemergence; assay type: in vivo, Chenopodium album; settings: preemergence
Summary of the method: as §1

[14] = tested on: pigweed; assay: Test C postemergence; assay type: in vivo, Amaranthus retroflexus; settings: for Plant response rating (0 to 100), Pigweed: 16 g ai/ha, 0 is no effect, 100 is complete control; for Pigweed plant response rating: 31 g ai/ha, 13 to 15 days; for Pigweed plant response rating / Plant response rating, Pigweed: scale 0 to 100 (0 no effect, 100 complete control)
Summary of the method: as §1

[15] = tested on: lambsquarters; assay: Test C postemergence; assay type: in vivo, Chenopodium album; settings: for Plant response rating (0 to 100), Lambsquarters: 16 g ai/ha, 0 is no effect, 100 is complete control; for Lambsquarters plant response rating: 31 g ai/ha, 13 to 15 days; for Lambsquarters plant response rating / Plant response rating, Lambsquarters: scale 0 to 100 (0 no effect, 100 complete control)
Summary of the method: as §1

[16] = tested on: giant foxtail; assay: Test C postemergence; assay type: in vivo, Setaria faberii; settings: for Plant response rating (0 to 100), Foxtail, Giant: 16 g ai/ha, 0 is no effect, 100 is complete control; for Foxtail, Giant plant response rating: 31 g ai/ha, 13 to 15 days; for Foxtail, Giant plant response rating / Plant response rating, Foxtail, Giant: scale 0 to 100 (0 no effect, 100 complete control)
Summary of the method: as §1

[17] = tested on: large (Lg) crabgrass; assay: Test C postemergence; assay type: in vivo, Digitaria sanguinalis; settings: for Plant response rating (0 to 100), Crabgrass, Large: 16 g ai/ha, 0 is no effect, 100 is complete control; for Crabgrass, Large plant response rating: 31 g ai/ha, 13 to 15 days; for Crabgrass, Large plant response rating / Plant response rating, Crabgrass, Large: scale 0 to 100 (0 no effect, 100 complete control)
Summary of the method: as §1

[18] = 125 g ai/ha, postemergence, visual rating
[19] = 125 g ai/ha, 0 to 100 scale where 0 is no effect and 100 is complete control
[20] = 500 g ai/ha, 0 to 100 scale where 0 is no effect and 100 is complete control
[21] = 16 g ai/ha, scale 0 to 100 (0 no effect, 100 complete control)
[22] = 62 g ai/ha, scale 0 (no effect) to 100 (complete control)
[23] = 125 g ai/ha, scale 0 (no effect) to 100 (complete control)
[24] = 1000 g ai/ha, 0 to 100 scale, 0 no effect, 100 complete control

CCCOc1cnn(-c2c(C#N)cccc2Oc2ncc(Cl)cn2)c1 [Compound 150]
Plant response rating (0 to 100), Morningglory ([1]; postemergence): 40
Morningglory plant response rating ([1]; postemergence, visual rating): 60
Plant response rating, Morningglory [1, 18]: 80
Plant response rating, Morningglory ([1]; Postemergence, 62 g ai/ha): 65
Foxtail, Giant plant response rating [2, 19]: 100
Plant response rating, Foxtail, Giant [2, 20]: 100
Corn plant response rating [3, 21]: 0
Corn plant response rating [3, 22]: 25
Corn plant response rating [3, 23]: 45
Plant response rating, Corn [3]: 0
Plant response rating (0 to 100), Soybean ([4]; postemergence): 65
Soybean plant response rating ([4]; postemergence, visual rating): 65
Plant response rating, Soybean [4, 18]: 95
Plant response rating, Soybean ([4]; Postemergence, 62 g ai/ha): 65
Ragweed plant response rating [5, 21]: 0
Ragweed plant response rating [5, 22]: 25
Ragweed plant response rating [5, 23]: 55
Corn plant response rating [6, 19]: 50
Plant response rating, Corn [6, 20]: 90
Plant response rating (0 to 100), Waterhemp ([7]; postemergence): 35
Waterhemp plant response rating ([7]; postemergence, visual rating): 35
Plant response rating, Waterhemp [7, 18]: 65
Plant response rating, Waterhemp ([7]; Postemergence, 62 g ai/ha): 35
Velvetleaf plant response rating [8, 21]: 5
Velvetleaf plant response rating [8, 22]: 60
Velvetleaf plant response rating [8, 23]: 70
Pigweed plant response rating [9, 19]: 100
Plant response rating, Pigweed [9, 20]: 100
Morningglory plant response rating [10, 21]: 0
Morningglory plant response rating [10, 22]: 45
Morningglory plant response rating [10, 23]: 75
Plant response rating (0 to 100), Ragweed ([11]; postemergence): 30
Ragweed plant response rating ([11]; postemergence, visual rating): 30
Plant response rating, Ragweed [11, 18]: 65
Plant response rating, Ragweed ([11]; Postemergence, 62 g ai/ha): 35
Galium plant response rating [12, 21]: 0
Galium plant response rating [12, 22]: 90
Galium plant response rating [12, 23]: 100
Plant response rating, Galium [12]: 80
Lambsquarters plant response rating [13, 21]: 10
Lambsquarters plant response rating [13, 22]: 80
Lambsquarters plant response rating [13, 23]: 100
Plant response rating (0 to 100), Pigweed ([14]; postemergence): 40
Pigweed plant response rating ([14]; postemergence, visual rating): 55
Plant response rating, Pigweed [14, 18]: 65
Plant response rating, Pigweed ([14]; Postemergence, 62 g ai/ha): 55
Plant response rating (0 to 100), Lambsquarters ([15]; postemergence): 10
Lambsquarters plant response rating ([15]; postemergence, visual rating): 30
Plant response rating, Lambsquarters [15, 18]: 80
Plant response rating, Lambsquarters ([15]; Postemergence, 62 g ai/ha): 35
Plant response rating (0 to 100), Foxtail, Giant ([16]; postemergence): 5
Foxtail, Giant plant response rating ([16]; postemergence, visual rating): 20
Plant response rating, Foxtail, Giant [16, 18]: 25
Plant response rating, Foxtail, Giant ([16]; Postemergence, 62 g ai/ha): 20
Plant response rating (0 to 100), Crabgrass, Large ([17]; postemergence): 5
Crabgrass, Large plant response rating ([17]; postemergence, visual rating): 5
Plant response rating, Crabgrass, Large [17, 18]: 10
Plant response rating, Crabgrass, Large ([17]; Postemergence, 62 g ai/ha): 5

FCc1cn(-c2c(F)cccc2Oc2ncc(Cl)cn2)nn1 [Compound 154]
Plant response rating (0 to 100), Morningglory ([1]; postemergence): 55
Morningglory plant response rating ([1]; postemergence, visual rating): 65
Plant response rating, Morningglory [1, 18]: 80
Plant response rating, Morningglory ([1]; Postemergence, 62 g ai/ha): 65
Plant response rating, Foxtail, Giant [2, 24]: 100
Corn plant response rating [3, 21]: 5
Corn plant response rating [3, 22]: 5
Corn plant response rating [3, 23]: 10
Plant response rating, Corn [3]: 0
Plant response rating (0 to 100), Soybean ([4]; postemergence): 40
Soybean plant response rating ([4]; postemergence, visual rating): 65
Plant response rating, Soybean [4, 18]: 75
Plant response rating, Soybean ([4]; Postemergence, 62 g ai/ha): 65
Ragweed plant response rating [5, 21]: 75
Ragweed plant response rating [5, 22]: 95
Ragweed plant response rating [5, 23]: 90
Plant response rating, Corn [6, 24]: 90
Plant response rating (0 to 100), Waterhemp ([7]; postemergence): 5
Waterhemp plant response rating ([7]; postemergence, visual rating): 60
Plant response rating, Waterhemp [7, 18]: 70
Plant response rating, Waterhemp ([7]; Postemergence, 62 g ai/ha): 65
Velvetleaf plant response rating [8, 21]: 85
Velvetleaf plant response rating [8, 22]: 100
Velvetleaf plant response rating [8, 23]: 100
Plant response rating, Pigweed [9, 24]: 100
Morningglory plant response rating [10, 21]: 10
Morningglory plant response rating [10, 22]: 50
Morningglory plant response rating [10, 23]: 85
Plant response rating (0 to 100), Ragweed ([11]; postemergence): 35
Ragweed plant response rating ([11]; postemergence, visual rating): 45
Plant response rating, Ragweed [11, 18]: 90
Plant response rating, Ragweed ([11]; Postemergence, 62 g ai/ha): 100
Galium plant response rating [12, 21]: 80
Galium plant response rating [12, 22]: 95
Galium plant response rating [12, 23]: 95
Plant response rating, Galium [12]: 95
Lambsquarters plant response rating [13, 21]: 70
Lambsquarters plant response rating [13, 22]: 90
Lambsquarters plant response rating [13, 23]: 100
Plant response rating (0 to 100), Pigweed ([14]; postemergence): 25
Pigweed plant response rating ([14]; postemergence, visual rating): 30
Plant response rating, Pigweed [14, 18]: 75
Plant response rating, Pigweed ([14]; Postemergence, 62 g ai/ha): 60
Plant response rating (0 to 100), Lambsquarters ([15]; postemergence): 20
Lambsquarters plant response rating ([15]; postemergence, visual rating): 55
Plant response rating, Lambsquarters [15, 18]: 70
Plant response rating, Lambsquarters ([15]; Postemergence, 62 g ai/ha): 60
Plant response rating (0 to 100), Foxtail, Giant ([16]; postemergence): 5
Foxtail, Giant plant response rating ([16]; postemergence, visual rating): 10
Plant response rating, Foxtail, Giant [16, 18]: 15
Plant response rating, Foxtail, Giant ([16]; Postemergence, 62 g ai/ha): 5
Plant response rating (0 to 100), Crabgrass, Large ([17]; postemergence): 5
Crabgrass, Large plant response rating ([17]; postemergence, visual rating): 10
Plant response rating, Crabgrass, Large [17, 18]: 10
Plant response rating, Crabgrass, Large ([17]; Postemergence, 62 g ai/ha): 10
